We go through 27 compounds from patent US20260132164A1, “PNU ANTHRACYCLINE DERIVATIVES AND METHODS OF USE THEREOF” (Merck Sharp & Dohme LLC, priority 2022, published 2026).

The assay deals with BxPC3. The assay is described as follows: CellTiter-Glo 2.0 Cytotoxicity Assay. To be noted: Homo sapiens, BXPC-3, CellTiter-Glo 2.0 luminescence; compound added day 1, read on day 4 or 5; 3000 cells/well. It counts as cell-based. (Cellular ATP, detected with luciferase, serves as a proxy for viable cell number.)
On to `COc1cccc2c1C(=O)c1c(O)c3c(c(O)c1C2=O)C[C@@](O)(C(=O)NCCCN1CCNCC1)C[C@@H]3O[C@H]1C[C@H]2[C@H](O[C@@H]3[C@@H](OC)OCCN32)[C@H](C)O1` [Compound 39], for which the response was half-maximal at 3.8 nM (EC50).

Regarding `COc1cccc2c1C(=O)c1c(O)c3c(c(O)c1C2=O)C[C@@](O)(C(=O)NCC[C@@H]1CCCN1)C[C@@H]3O[C@H]1C[C@H]2[C@H](O[C@@H]3[C@@H](OC)OCCN32)[C@H](C)O1` [Compound 40], the midpoint of the response, the EC50, lay at 4.3 nM. Under `COc1cccc2c1C(=O)c1c(O)c3c(c(O)c1C2=O)C[C@@](O)(C(=O)NCc1ccc(CN)cc1)C[C@@H]3O[C@H]1C[C@H]2[C@H](O[C@@H]3[C@@H](OC)OCCN32)[C@H](C)O1` [Compound 41] stands 0.42 nM; under `COc1cccc2c1C(=O)c1c(O)c3c(c(O)c1C2=O)C[C@@](O)(C(=O)N[C@H]1C[C@H](N)C1)C[C@@H]3O[C@H]1C[C@H]2[C@H](O[C@@H]3[C@@H](OC)OCCN32)[C@H](C)O1` [Compound 42], 12 nM; under `COc1cccc2c1C(=O)c1c(O)c3c(c(O)c1C2=O)C[C@@](O)(C(=O)NC[C@H]1C[C@H](N)C1)C[C@@H]3O[C@H]1C[C@H]2[C@H](O[C@@H]3[C@@H](OC)OCCN32)[C@H](C)O1` [Compound 43], 2.2 nM. Regarding `COc1cccc2c1C(=O)c1c(O)c3c(c(O)c1C2=O)C[C@@](O)(C(=O)NC12CC(CN)(C1)C2)C[C@@H]3O[C@H]1C[C@H]2[C@H](O[C@@H]3[C@@H](OC)OCCN32)[C@H](C)O1` [Compound 44], it took 4.8 nM to reach a half-maximal effect (EC50). Next, `COc1cccc2c1C(=O)c1c(O)c3c(c(O)c1C2=O)C[C@@](O)(C(=O)NCC[C@H]1CCCN1)C[C@@H]3O[C@H]1C[C@H]2[C@H](O[C@@H]3[C@@H](OC)OCCN32)[C@H](C)O1` [Compound 45]: 0.6 nM; `COc1cccc2c1C(=O)c1c(O)c3c(c(O)c1C2=O)C[C@@](O)(C(=O)NC1CC2(CNC2)C1)C[C@@H]3O[C@H]1C[C@H]2[C@H](O[C@@H]3[C@@H](OC)OCCN32)[C@H](C)O1` [Compound 46]: 18 nM.

As to `COc1cccc2c1C(=O)c1c(O)c3c(c(O)c1C2=O)C[C@@](O)(C(=O)NCC1CNC1)C[C@@H]3O[C@H]1C[C@H]2[C@H](O[C@@H]3[C@@H](OC)OCCN32)[C@H](C)O1` [Compound 47], a half-maximal effect (EC50) was put at 9.4 nM. Next, `COc1cccc2c1C(=O)c1c(O)c3c(c(O)c1C2=O)C[C@@](O)(C(=O)NCCN(C)C(=O)C1(N)CCCC1)C[C@@H]3O[C@H]1C[C@H]2[C@H](O[C@@H]3[C@@H](OC)OCCN32)[C@H](C)O1` [Compound 48]: 0.31 nM. Under `COc1cccc2c1C(=O)c1c(O)c3c(c(O)c1C2=O)C[C@@](O)(C(=O)NCCC1(N)COC1)C[C@@H]3O[C@H]1C[C@H]2[C@H](O[C@@H]3[C@@H](OC)OCCN32)[C@H](C)O1` [Compound 51] stands 0.18 nM; under `COc1cccc2c1C(=O)c1c(O)c3c(c(O)c1C2=O)C[C@@](O)(C(=O)NCCN(C)C(=O)[C@@](C)(N)C(C)C)C[C@@H]3O[C@H]1C[C@H]2[C@H](O[C@@H]3[C@@H](OC)OCCN32)[C@H](C)O1` [Compound 52], 1.9 nM; under `COc1cccc2c1C(=O)c1c(O)c3c(c(O)c1C2=O)C[C@@](O)(C(=O)N[C@H]1C[C@@H](N)C1)C[C@@H]3O[C@H]1C[C@H]2[C@H](O[C@@H]3[C@@H](OC)OCCN32)[C@H](C)O1` [Compound 53], 7.7 nM. Take `COc1cccc2c1C(=O)c1c(O)c3c(c(O)c1C2=O)C[C@@](O)(C(=O)NCCCCN)C[C@@H]3O[C@H]1C[C@H]2[C@H](O[C@@H]3[C@@H](OC)OCCN32)[C@H](C)O1` [Compound 54]: the midpoint of the response, the EC50, lay at 1.4 nM.

On to `COc1cccc2c1C(=O)c1c(O)c3c(c(O)c1C2=O)C[C@@](O)(C(=O)N[C@H]1C[C@@H](CN)C1)C[C@@H]3O[C@H]1C[C@H]2[C@H](O[C@@H]3[C@@H](OC)OCCN32)[C@H](C)O1` [Compound 55], for which a half-maximal response (EC50) required 10.2 nM. In the case of `COc1cccc2c1C(=O)c1c(O)c3c(c(O)c1C2=O)C[C@@](O)(C(=O)NCC(C)(C)CN)C[C@@H]3O[C@H]1C[C@H]2[C@H](O[C@@H]3[C@@H](OC)OCCN32)[C@H](C)O1` [Compound 56], the EC50 – broadly, the concentration giving half of the maximal effect – is 1.4 nM. Under `COc1cccc2c1C(=O)c1c(O)c3c(c(O)c1C2=O)C[C@@](O)(C(=O)NC12CNCC1C2)C[C@@H]3O[C@H]1C[C@H]2[C@H](O[C@@H]3[C@@H](OC)OCCN32)[C@H](C)O1` (stereo partly drawn) [Compound 57] stands 1.6 nM; under `COc1cccc2c1C(=O)c1c(O)c3c(c(O)c1C2=O)C[C@@](O)(C(=O)NC[C@@H]1CCNC1)C[C@@H]3O[C@H]1C[C@H]2[C@H](O[C@@H]3[C@@H](OC)OCCN32)[C@H](C)O1` [Compound 58], 3.9 nM. Under `COc1cccc2c1C(=O)c1c(O)c3c(c(O)c1C2=O)C[C@@](O)(C(=O)N[C@H]1CC[C@H](N)CC1)C[C@@H]3O[C@H]1C[C@H]2[C@H](O[C@@H]3[C@@H](OC)OCCN32)[C@H](C)O1` [Compound 59] stands 6.3 nM; under `COc1cccc2c1C(=O)c1c(O)c3c(c(O)c1C2=O)C[C@@](O)(C(=O)NC12CC(NC(=O)CO)(C1)C2)C[C@@H]3O[C@H]1C[C@H]2[C@H](O[C@@H]3[C@@H](OC)OCCN32)[C@H](C)O1` [Compound 60], 0.55 nM. Under `COc1cccc2c1C(=O)c1c(O)c3c(c(O)c1C2=O)C[C@@](O)(C(=O)NCC(C)(C)N)C[C@@H]3O[C@H]1C[C@H]2[C@H](O[C@@H]3[C@@H](OC)OCCN32)[C@H](C)O1` [Compound 61, (2S,4S)—N-(2-amino-2-methylpropyl)-2,5,12-trihydroxy-7-methoxy-4-(((1S,3R,4aS,9S,9aR,10aS)-9-methoxy-1-methyloctahydro-1H-pyrano[4′,3′:4,5]oxazolo[2,3-c][1,4]oxazin-3-yl)oxy)-6,11-dioxo-1,2,3,4,6,11-hexahydrotetracene-2-carboxamide] stands 8.7 nM; under `COc1cccc2c1C(=O)c1c(O)c3c(c(O)c1C2=O)C[C@@](O)(C(=O)NCCN1C(=O)CNC1=O)C[C@@H]3O[C@H]1C[C@H]2[C@H](O[C@@H]3[C@@H](OC)OCCN32)[C@H](C)O1` [Compound 62], 0.19 nM; under `COc1cccc2c1C(=O)c1c(O)c3c(c(O)c1C2=O)C[C@@](O)(C(=O)NCCN1CCNC1=O)C[C@@H]3O[C@H]1C[C@H]2[C@H](O[C@@H]3[C@@H](OC)OCCN32)[C@H](C)O1` [Compound 63], 0.14 nM. The compound `COc1cccc2c1C(=O)c1c(O)c3c(c(O)c1C2=O)C[C@@](O)(C(=O)NCC1(N)CC1)C[C@@H]3O[C@H]1C[C@H]2[C@H](O[C@@H]3[C@@H](OC)OCCN32)[C@H](C)O1` [Compound 64] yielded an EC50 of 0.49 nM. Under `COc1cccc2c1C(=O)c1c(O)c3c(c(O)c1C2=O)C[C@@](O)(C(=O)NCC(N)C(F)(F)F)C[C@@H]3O[C@H]1C[C@H]2[C@H](O[C@@H]3[C@@H](OC)OCCN32)[C@H](C)O1` (stereo partly drawn) [Compound 65] stands 0.16 nM; under `COc1cccc2c1C(=O)c1c(O)c3c(c(O)c1C2=O)C[C@@](O)(C(=O)N1CCNCC1)C[C@@H]3O[C@H]1C[C@H]2[C@H](O[C@@H]3[C@@H](OC)OCCN32)[C@H](C)O1` [Compound 68], 8.1 nM; under `COc1cccc2c1C(=O)c1c(O)c3c(c(O)c1C2=O)C[C@@](O)(C(=O)NCC(N)C(F)F)C[C@@H]3O[C@H]1C[C@H]2[C@H](O[C@@H]3[C@@H](OC)OCCN32)[C@H](C)O1` (stereo partly drawn) [Compound 69], 0.16 nM.
